Experimental data reported in patent US20050222182A1, “Stabilized pharmaceutical compositions of halofuginone and other quinazolinone derivatives” (priority 2002, published 2005).
Where two headings read alike, the source gives them in different places.

Legend:
[1] = format: physicochemical; conditions: for Ea (degradation activation energy): 1 mg/ml
Description: Halofuginone HBr powder was dissolved in acetonitrile and the solution was mixed with 4 volumes ([…]) of borate buffer to yield a […] solution. Buffer solutions at pH 5.5, 6.5, and 7.5 were prepared by mixing various amounts of sodium borate solution (12 g in 240 ml DDW) to boric acid solution (12 g in 240 ml DDW). The solutions were filtered through a 0.2 micron filter into a tightly closed glass vial coated with aluminum foil to protect from light. The solutions (1.25 ml, 1 mg/ml in acetonitrile: buffer 1:4) were kept in temperature controlled incubators at 4, 25, 37 and 60° C. At time of analysis, about 50 μl of the solution was taken and immediately injected to the HPLC.
Halofuginone was determined by HPLC using the following equipment and conditions: • Instrument: HP 1050 with HPCHEM software • Column: C8, Lichospher 60 (5, μm) LichoCART 125-4, Cat. No. 1.50213 (Merck) (similar to Hypersil BDS C8 used by AminoLab) with precolumn Lichospher 100 RP-8, 5 μm, 4×4 mm, Cat. No. 1.50961 (Merck) • Column temp: ambient • Flow rate: isocratic, 1 ml/min Eluant: Acetonitrile: 0.1 M sodium citrate buffer pH3.0 at a 30:70 v/v • Detector: UV 254 nm • Sample volume: 20 μl • Run time: 15 min., halofuginone Rt=8.8 min.; degradation product Rt=11.7 Results:
Analysis: Halofuginone was analyzed by HPLC with UV detector. The retention times for halofuginone and its main degradation product (cis isomer) are 8.8 min and 11.7 min, respectively.
Stability: Halofuginone concentrations were followed for 24 hours. […] The decrease in halofuginone concentrations for the solutions kept at 25° C. and above is shown in FIG. 1 and the rate constants are summarized in Table 1. The degradation activation energies at different pH solutions were estimated from the plot of ln(Kobs) vs. 1/T and are summarized in Table 1. The activation energies were calculated from the slopes of ln(Kobs) vs. 1/T. The activation energies are in the range of 6.57-13.13 Kcal.

[2] = format: physicochemical
Source text: A commercially useful solution formulation was developed based on halofuginone dissolved in lactate buffer and the stability data shown in FIGS. 2 and 3. The stability of halofuginone in sodium lactate buffer (4% pH 4) was unaffected by the presence of saline in the final solution.

[3] = physchem; format: physicochemical; conditions: aqueous buffer, thermodynamic from solid
Description: The solubility of halofuginone in several solvents was first studied. Powder of halofuginone was dissolved in the different solvents, starting from over saturation and followed by dilutions.

| Structure (SMILES) | Ea (degradation activation energy) ([1]; pH 5.5) [kcal] | Ea (degradation activation energy) ([1]; pH 6.5) [kcal] | Ea (degradation activation energy) ([1]; pH 7.5) [kcal] | Slope [ln(Kobs)/1/T] ([1]; pH 5.5) | Activation energies (range over pH solutions) ([1]; pH 5.5-7.5) | Slope [ln(Kobs)/1/T] ([1]; pH 6.5) | Slope [ln(Kobs)/1/T] ([1]; pH 7.5) | Stability in lactate buffer pH 4.0 compared to distilled water [2] | solubility [3] [µg/mL] |
| --- | --- | --- | --- | --- | --- | --- | --- | --- | --- |
| O=C(C[C@@H]1NCCC[C@H]1O)Cn1cnc2cc(Br)c(Cl)cc2c1=O (racemic) [halofuginone, 7-bromo-6-chloro-3-[3-(3-hydroxy-2-piperidinyl)-2-oxopropyl]-4(3H)-quinazolinone] | 13.13 | 8.38 | 6.57 | 26,134 | 6.57-13.13 Kcal | 16,685 | 13,412 | higher stability |  |
| O=C(CC1NCCCC1O)Cn1cnc2cc(Br)c(Cl)cc2c1=O (stereo not drawn) [halofuginone-Hbr] |  |  |  |  |  |  |  |  | ≥ 5000 |
